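The compound was tested at five concentrations on cells cultured in 96-well plates, with a 48-hour exposure period. The concentration for full growth arrest is given as TGI.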
Key:
Test in all cases: NCI tumour cell line growth inhibition, 48 h
A498 renal = tested on: A498 renal
A549 NSCLC = tested on: A549 NSCLC
ACHN renal = tested on: ACHN renal
CAKI-1 renal = tested on: CAKI-1 renal
CCRF-CEM leukemia = tested on: CCRF-CEM leukemia
COLO 205 colon = tested on: COLO 205 colon
DU-145 prostate = tested on: DU-145 prostate
EKVX NSCLC = tested on: EKVX NSCLC
HCC-2998 colon = tested on: HCC-2998 colon
HCT-116 colon = tested on: HCT-116 colon
HCT-15 colon = tested on: HCT-15 colon
HL-60(TB) leukemia = tested on: HL-60(TB) leukemia
HOP-62 NSCLC = tested on: HOP-62 NSCLC
HS 578T breast = tested on: HS 578T breast
HT29 colon = tested on: HT29 colon
IGROV1 ovarian = tested on: IGROV1 ovarian
K-562 leukemia = tested on: K-562 leukemia
KM12 colon = tested on: KM12 colon
LOX IMVI melanoma = tested on: LOX IMVI melanoma
M14 melanoma = tested on: M14 melanoma
MALME-3M melanoma = tested on: MALME-3M melanoma
MCF7 breast = tested on: MCF7 breast
MDA-MB-231 breast = tested on: MDA-MB-231 breast
MDA-MB-435 = tested on: MDA-MB-435
MDA-N = tested on: MDA-N
MOLT-4 leukemia = tested on: MOLT-4 leukemia
NCI-H226 lung = tested on: NCI-H226 lung
NCI-H23 lung = tested on: NCI-H23 lung
NCI-H460 lung = tested on: NCI-H460 lung
NCI-H522 lung = tested on: NCI-H522 lung
NCI/ADR-RES ovarian = tested on: NCI/ADR-RES ovarian
OVCAR-3 ovarian = tested on: OVCAR-3 ovarian
OVCAR-4 ovarian = tested on: OVCAR-4 ovarian
OVCAR-5 ovarian = tested on: OVCAR-5 ovarian
OVCAR-8 ovarian = tested on: OVCAR-8 ovarian
PC-3 prostate = tested on: PC-3 prostate
RPMI-8226 leukemia = tested on: RPMI-8226 leukemia
RXF 393 renal = tested on: RXF 393 renal
SF-268 CNS = tested on: SF-268 CNS
SF-295 CNS = tested on: SF-295 CNS
SF-539 CNS = tested on: SF-539 CNS
SK-MEL-2 melanoma = tested on: SK-MEL-2 melanoma
SK-MEL-28 melanoma = tested on: SK-MEL-28 melanoma
SK-MEL-5 melanoma = tested on: SK-MEL-5 melanoma
SK-OV-3 ovarian = tested on: SK-OV-3 ovarian
SN12C renal = tested on: SN12C renal
SNB-19 CNS = tested on: SNB-19 CNS
SNB-75 CNS = tested on: SNB-75 CNS
SR leukemia = tested on: SR leukemia
SW-620 colon = tested on: SW-620 colon
T-47D breast = tested on: T-47D breast
TK-10 renal = tested on: TK-10 renal
U251 CNS = tested on: U251 CNS
UACC-62 melanoma = tested on: UACC-62 melanoma
UO-31 renal = tested on: UO-31 renal
786-0 renal = tested on: 786-0 renal
BT-549 breast = tested on: BT-549 breast
HOP-92 NSCLC = tested on: HOP-92 NSCLC
UACC-257 melanoma = tested on: UACC-257 melanoma

COc1ccc(N2C(=O)C3c4[nH]c5cc(C)ccc5c4C4CCC(C(C)(C)C)CC4C3C2=O)cc1 (centres undefined)
TGI (A498 renal): > 10 µM | TGI (A549 NSCLC): > 10 µM | TGI (ACHN renal): > 10 µM | TGI (CAKI-1 renal): > 10 µM | TGI (CCRF-CEM leukemia): > 10 µM | TGI (COLO 205 colon): > 10 µM | TGI (DU-145 prostate): > 10 µM | TGI (EKVX NSCLC): > 10 µM | TGI (HCC-2998 colon): > 10 µM | TGI (HCT-116 colon): > 10 µM | TGI (HCT-15 colon): > 10 µM | TGI (HL-60(TB) leukemia): > 10 µM | TGI (HOP-62 NSCLC): > 10 µM | TGI (HS 578T breast): > 10 µM | TGI (HT29 colon): > 10 µM | TGI (IGROV1 ovarian): > 10 µM | TGI (K-562 leukemia): > 10 µM | TGI (KM12 colon): > 10 µM | TGI (LOX IMVI melanoma): > 10 µM | TGI (M14 melanoma): > 10 µM | TGI (MALME-3M melanoma): > 10 µM | TGI (MCF7 breast): > 10 µM | TGI (MDA-MB-231 breast): > 10 µM | TGI (MDA-MB-435): > 10 µM | TGI (MDA-N): > 10 µM | TGI (MOLT-4 leukemia): > 10 µM | TGI (NCI-H226 lung): > 10 µM | TGI (NCI-H23 lung): > 10 µM | TGI (NCI-H460 lung): > 10 µM | TGI (NCI-H522 lung): > 10 µM | TGI (NCI/ADR-RES ovarian): > 10 µM | TGI (OVCAR-3 ovarian): > 10 µM | TGI (OVCAR-4 ovarian): > 10 µM | TGI (OVCAR-5 ovarian): > 10 µM | TGI (OVCAR-8 ovarian): > 10 µM | TGI (PC-3 prostate): > 10 µM | TGI (RPMI-8226 leukemia): > 10 µM | TGI (RXF 393 renal): > 10 µM | TGI (SF-268 CNS): > 10 µM | TGI (SF-295 CNS): > 10 µM | TGI (SF-539 CNS): > 10 µM | TGI (SK-MEL-2 melanoma): > 10 µM | TGI (SK-MEL-28 melanoma): > 10 µM | TGI (SK-MEL-5 melanoma): > 10 µM | TGI (SK-OV-3 ovarian): > 10 µM | TGI (SN12C renal): > 10 µM | TGI (SNB-19 CNS): > 10 µM | TGI (SNB-75 CNS): 6.07 µM | TGI (SR leukemia): > 10 µM | TGI (SW-620 colon): > 10 µM | TGI (T-47D breast): > 10 µM | TGI (TK-10 renal): > 10 µM | TGI (U251 CNS): > 10 µM | TGI (UACC-62 melanoma): > 10 µM | TGI (UO-31 renal): > 10 µM

Cc1c2c(c(C)n1-c1ccccc1)C(=O)N(CCN1CCN(c3cccc(C(F)(F)F)c3)CC1)C2=O
TGI (786-0 renal): > 100 µM | TGI (A498 renal): > 100 µM | TGI (A549 NSCLC): > 100 µM | TGI (ACHN renal): > 100 µM | TGI (BT-549 breast): > 100 µM | TGI (CAKI-1 renal): > 100 µM | TGI (COLO 205 colon): > 100 µM | TGI (DU-145 prostate): > 100 µM | TGI (EKVX NSCLC): > 100 µM | TGI (HCC-2998 colon): > 100 µM | TGI (HCT-116 colon): > 100 µM | TGI (HCT-15 colon): > 100 µM | TGI (HOP-62 NSCLC): > 100 µM | TGI (HOP-92 NSCLC): > 100 µM | TGI (HS 578T breast): > 100 µM | TGI (HT29 colon): > 100 µM | TGI (IGROV1 ovarian): > 100 µM | TGI (K-562 leukemia): > 100 µM | TGI (KM12 colon): > 100 µM | TGI (LOX IMVI melanoma): > 100 µM | TGI (M14 melanoma): > 100 µM | TGI (MALME-3M melanoma): > 100 µM | TGI (MCF7 breast): > 100 µM | TGI (MDA-MB-231 breast): > 100 µM | TGI (MDA-MB-435): > 100 µM | TGI (MDA-N): > 100 µM | TGI (MOLT-4 leukemia): > 100 µM | TGI (NCI-H226 lung): > 100 µM | TGI (NCI-H23 lung): > 100 µM | TGI (NCI-H460 lung): > 100 µM | TGI (NCI-H522 lung): > 100 µM | TGI (NCI/ADR-RES ovarian): > 100 µM | TGI (OVCAR-3 ovarian): > 100 µM | TGI (OVCAR-4 ovarian): > 100 µM | TGI (OVCAR-5 ovarian): > 100 µM | TGI (OVCAR-8 ovarian): > 100 µM | TGI (PC-3 prostate): > 100 µM | TGI (RPMI-8226 leukemia): > 100 µM | TGI (RXF 393 renal): > 100 µM | TGI (SF-268 CNS): > 100 µM | TGI (SF-295 CNS): > 100 µM | TGI (SF-539 CNS): > 100 µM | TGI (SK-MEL-2 melanoma): > 100 µM | TGI (SK-MEL-5 melanoma): 20.8 µM | TGI (SK-OV-3 ovarian): > 100 µM | TGI (SN12C renal): > 100 µM | TGI (SNB-19 CNS): > 100 µM | TGI (SNB-75 CNS): > 100 µM | TGI (T-47D breast): > 100 µM | TGI (TK-10 renal): > 100 µM | TGI (U251 CNS): > 100 µM | TGI (UACC-257 melanoma): > 100 µM | TGI (UACC-62 melanoma): > 100 µM | TGI (UO-31 renal): > 100 µM

From PubChem BioAssay (NCI)
